# Source: patent US10759754B2, “Aminobenzoic acid derivatives for use as anti-inflammatory agents, anti-metastatic agents and/or anticancer agents” (3R VALO, S.E.C., priority 2016, dated 2020)
# Entries after “also recorded” stand apart in the source; their conditions may differ.
# Legend:
# STAT3 = assay: Western blot of phosphorylated STAT3 in IL6-activated human macrophages; assay type: cell-based; conditions: human macrophages pretreated 30 min at 10 and 50 μM; 30 min activation with 25 ng/mL IL6
# Experimental: (§1) Cell signaling studies: THP1-derived human macrophages (750×10^3 cells/mL) and MB49-I cells (500×10^3 cells/mL) were pretreated for 30 min with vehicle (DMSO), compounds 4 and 5, at 10, 25 or 50 μM; and then washed and recovered immediately (t=0 min) or after 30 min of activation with 50 U/mL IFNγ, 25 ng/mL IL6, or 10 ng/mL TNFα. Cell lysates were prepared and analyzed by immunoblotting as described.^21-23,25 Briefly, protein samples were resolved by SDS-PAGE under reducing conditions and transferred onto a PVDF membrane. Blots were first probed with rabbit polyclonal antibodies against phospho-STAT1 (pSTAT1), pSTAT3, or p-IκB (all at 1:2000) overnight at 4° C. Blots were then incubated with HRP-conjugated goat anti-rabbit IgG Ab (1:3000) for 1 h at room temperature. The same blots were stripped and then probed with anti-STAT1 or anti-STAT3 Abs (both at 1:1000). In both cases, probed molecules were visualized using an enhancement chemiluminescence detection kit (Thermo Fisher Scientific).
# CD40 = assay: Flow cytometry of CD40 surface antigen in IFNγ-activated human macrophages; assay type: cell-based; conditions: compound 4 at 10 μM, compound 5 at 25 μM
# Experimental: (§2) Surface antigen expression analysis. To study membrane receptor expression, THP1-derived human macrophages (750×10^4 cells/mL) were pretreated for 3 h with DMSO or compounds 4 and 5, and then left untreated (control) or treated for 48 h with 50 U/mL IFNγ. The expression level of MHC-II and CD40 was evaluated by flow cytometry as described.^21-23
# MHC-II = assay: Flow cytometry of MHC-II surface antigen in IFNγ-activated human macrophages; assay type: cell-based; conditions: compound 4 at 10 μM, compound 5 at 25 μM
# Experimental: as §2
# UBC cell line MB49-I = assay: IFNγ/TNFα-induced NO production (Griess) in MB49-I cells; assay type: cell-based, murine; conditions: 10 and 50 μM
# Experimental: Evaluation of NO and Urea production by chemical methods. The MB49-I cells and the J774A.1 cells (25×10^3 cells/well) were grown and pretreated, as indicated, with various anti-inflammatory derivatives, precursors and mono-functional derivatives for a period of 3 h. Afterwards the cells were washed twice with 10% FBS RPMI-1640 and then activated to produce NO for a period of 24 h with cytokines INFγ and TNFα. NO production was measured using the Griess reagent method as previously described.^27 This method involves the detection of nitrite ions (NO2^−) formed by the spontaneous oxidation of NO under physiological conditions. According the manufacture procedure (Life Technologies; # G-7921), equal volumes of sulfanilic acid and N-(1-naphthyl)ethylenediamine are mixed together to form the Griess reagent. In the presence of NO2^−, sulfanilic acid is converted to a diazonium salt, which in turn is coupled to N-(1-naphthyl)ethylenediamine to produce a pink coloration that is measured with a spectrophotometer (Biotek, synergy HT) at 548 nm. In the same manner, urea synthesis through arginase-1 activity was measured using commercially available kit.
# [1] = tested on: TNFα/NFκB signaling pathway; assay: Western blot of TNFα/NFκB signaling in MB49-I cells; assay type: cell-based, murine; conditions: doses as lower as 10 μM
# Experimental: as §1
# NFκB = assay: NFκB-responsive luciferase assay in MB49-I cells; assay type: cell-based, murine; conditions: 50 μM
# From the text: Luciferase assay. To assess the transcriptional activity of NFκB in response to TNFα, MB49-I cells cultured in monolayers (7.5×10^4 cells/well in 24-well plates) were transiently transfected with an expression vector allowing the transcription of the firefly luciferase reporter gene under the control of CMV promoter and tandem repeats of the NFκB transcriptional response element. The luciferase gene encodes a 61-kDa enzyme that oxidizes D-luciferin in the presence of ATP, oxygen, and Mg^++, yielding a […] product that can be quantified by measuring the released light. Transfection was performed using Opti-MEM reduced serum media and Lipofectamine 2000 (Thermo Fisher Scientific). Then, MB49-I cells were pretreated for 30 min with vehicle (DMSO) and compound 4 (at 10 μM or 30 μM); and then washed and recovered after 24 h of activation with 10 ng/mL or 50 ng/mL TNFα. Cell lysates were mixed with Luciferase assay reagent (a mixture of luciferine, coenzyme A, ATP and Mg^2+) and the light produced was measured using a luminometer.
# human UBC T24 cells [2] = assay: Microinvasion assay (matrigel in Boyden chamber), M1-induced T24 cell invasion; assay type: cell-based
# Experimental: Microinvasion assays. Invasion was measured by assessment of human UBC T24 cell migration rate through an artificial basement membrane in a modified Boyden chamber (HTS Transwell System). Briefly, the membrane consisted of a polycarbonate filter with 0.4 μm pores diameter and was coated on ice with Matrigel (BD Biosciences) diluted 1:2 (v/v) in serum-free culture media. T24 cells (50×10^3 cells) were seeded into the Matrigel coat in the upper well of the chamber, while polarized M1 macrophages (50×10^3 cells) were seeded in the lower well. The polycarbonate filter with 0.4 μm pores diameter is too small to left the cells move to the bottom of the lower wells. Thus, non-invading cells into the matrigel coat were removed and cells that migrated down to the polycarbonate filter were stained with Hoescht 33258 dye after a 48-h incubation period, visualized by fluorescence microscopy and counted.
# human UBC T24 cells [3] = assay: Motility (scratch) assay, IL6-induced, in T24 cells; assay type: cell-based; conditions: 30 μM
# MB49-I tumors = assay: Orthotopic UBC model, MB49-I tumors implanted in the bladder of female mice; assay type: in vivo; conditions: i.p. biweekly at 150 μM during two weeks
# Experimental: Orthotopic UBC model. Female C57BL/6J mice (6-8 weeks old), each weighing 15-18 g, were anesthetized and a 24-gauge Teflon catheter was introduced into the bladder lumen through the urethra. To prepare the bladder for tumor implantation, a point lesion was induced in the bladder wall by electrocauterization. Then, 1×10^5 of MB49-I cells in 100 μl of PBS were instilled into the bladder. When indicated, control mice were electrocauterized and PBS was instilled into the bladder. Syringes containing the cell suspension were maintained into the catheter for 20 min to allow cell attachment to the bladder wall.^24,27
# [4] = tested on: IκB / NFκB signaling pathway; assay: Western blot of phosphorylated IκB in LPS-activated RAW 264.7 cells; assay type: cell-based, murine; conditions: 90 min pretreatment at 20 and 37.5 μM, 100 ng/mL LPS 15 min
smiles,measurement,setting,value
"CC(C)(C)OC(=O)NNC(=O)c1ccc(N2C(=O)C=CC2=O)cc1 [Compound 4, N′-[4-(2,5-dioxo-2,5-dihydro-pyrrol-1-yl)-benzoyl]-hydrazine carboxylic acid tert-butyl ester]",IL6-induced STAT3 activation (ratio of phosphorylated/no phosphorylated proteins),STAT3,decreased; also recorded: efficiently inhibited
same,IFNγ-induced CD40 expression,CD40,effective in reducing; also recorded: efficiently inhibited
same,IFNγ-induced MHC-II expression,MHC-II,effective in reducing; also recorded: efficiently inhibited
same,combined IFNγ/TNFα-induced NO synthesis,UBC cell line MB49-I,efficiently inhibited
same,TNFα/NFκB signaling pathway (Western blot),[1],inhibit; also recorded: efficiently inhibited
same,NFκB activation (luciferase assay),NFκB,efficiently inhibited
same,M1-induced human UBC T24 cell invasion,human UBC T24 cells [2],efficiently inhibited
same,IL6-induced motility (scratch assay),human UBC T24 cells [3],inhibit; also recorded: efficiently inhibited
same,development of muscle-invasive MB49-I tumors in the bladder,MB49-I tumors,stopped; also recorded: completely abolished
same,LPS-activated NFκB signaling pathway (ratio p-IkB/IkB),[4],efficient to inhibit
